Source: the supplement of paper PMC10733146

Key:
Assay in all cases: viability relative to DMSO control (fraction); higher = less drug effect (more viable cells)
Settings in all cases: 48 h
Bendamustine = compound: Cn1c(CCCC(=O)O)nc2cc(N(CCCl)CCCl)ccc21 [Bendamustine]
Procedure, shortened: (§1)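 Using 384-well plates with compounds already plated at five concentrations, one well per concentration, 4 × 10^4 primary mononuclear tumour cells were added per well. Cells were Ficoll-isolated from blood or bone marrow or came from processed lymph node, fresh or cryopreserved. They were kept for 48 h at 37 °C and 5% CO2 in RPMI-1640 supplemented with penicillin/streptomycin, L-glutamine and human serum, and viability was read as CellTiter-Glo luminescence relative to the median of 16 inner DMSO wells.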

Vindesine = compound: CC[C@]1(O)C[C@@H]2CN(CCc3c([nH]c4ccccc34)[C@@](C(=O)OC)(c3cc4c(cc3OC)N(C)[C@H]3[C@@](O)(C(N)=O)[C@H](O)[C@]5(CC)C=CCN6CC[C@]43[C@@H]65)C2)C1 [Vindesine]
Procedure, shortened: as §1

Idasanutlin (RS7388) = compound: COc1cc(C(=O)O)ccc1NC(=O)[C@@H]1N[C@@H](CC(C)(C)C)[C@](C#N)(c2ccc(Cl)cc2F)[C@H]1c1cccc(Cl)c1F [Idasanutlin (RS7388)]
Procedure, shortened: as §1

Everolimus = compound: CO[C@H]1C[C@@H]2CC[C@@H](C)[C@@](O)(O2)C(=O)C(=O)N2CCCC[C@H]2C(=O)O[C@H]([C@H](C)C[C@@H]2CC[C@@H](OCCO)[C@H](OC)C2)CC(=O)[C@H](C)/C=C(\C)[C@@H](O)[C@@H](OC)C(=O)[C@H](C)C[C@H](C)/C=C/C=C/C=C/1C [Everolimus]
Procedure, shortened: as §1

Roscovitine = compound: CC[C@H](CO)Nc1nc(NCc2ccccc2)c2ncn(C(C)C)c2n1 [Roscovitine]
Procedure, shortened: as §1

[1] = compound: O=C(Nc1ccc2[nH]nc(-c3ccncc3)c2c1)[C@@H]1CCN(CC(=O)N2CCN(c3ccc(-c4ncccn4)cc3)CC2)C1
Procedure, shortened: as §1

[2] = compound: O=C(NO)c1cccc(C(=O)NCCc2ccccc2)c1
Procedure, shortened: as §1

[3] = compound: C[C@H]1C[C@@H](n2c(Nc3ccc(OC(F)(F)F)cc3)nc3cc(CCC(=O)O)ccc32)CC(C)(C)C1
Procedure, shortened: as §1

Thalidomide = compound: O=C1CCC(N2C(=O)c3ccccc3C2=O)C(=O)N1 [Thalidomide]
Procedure, shortened: as §1

Entospletinib = compound: c1cn2cc(-c3ccc4cn[nH]c4c3)nc(Nc3ccc(N4CCOCC4)cc3)c2n1 [Entospletinib]
Procedure, shortened: as §1

I-BET-762 = compound: CCNC(=O)C[C@@H]1N=C(c2ccc(Cl)cc2)c2cc(OC)ccc2-n2c(C)nnc21 [I-BET-762]
Procedure, shortened: as §1

CPI-169 = compound: CCS(=O)(=O)N1CCC([C@@H](C)n2c(C)c(C(=O)NCc3c(OC)cc(C)[nH]c3=O)c3ccccc32)CC1 [CPI-169]
Procedure, shortened: as §1

Venetoclax = compound: CC1(C)CCC(CN2CCN(c3ccc(C(=O)NS(=O)(=O)c4ccc(NCC5CCOCC5)c([N+](=O)[O-])c4)c(Oc4cnc5[nH]ccc5c4)c3)CC2)=C(c2ccc(Cl)cc2)C1 [Venetoclax]
Procedure, shortened: as §1

primary T-PLL patient cells (S008)
viability (Bendamustine; 0.032 µM): 1.05
viability (Bendamustine; 0.16 µM): 1.09
viability (Bendamustine; 0.8 µM): 0.992
viability (Bendamustine; 4 µM): 0.983
viability (Bendamustine; 20 µM): 0.977
viability (Vindesine; 0.016 µM): 0.631
viability (Vindesine; 0.08 µM): 0.332
viability (Vindesine; 0.4 µM): 0.276
viability (Vindesine; 2 µM): 0.22
viability (Vindesine; 10 µM): 0.118
viability (Idasanutlin (RS7388); 0.032 µM): 0.876
viability (Idasanutlin (RS7388); 0.16 µM): 0.888
viability (Idasanutlin (RS7388); 0.8 µM): 0.656
viability (Idasanutlin (RS7388); 4 µM): 0.325
viability (Idasanutlin (RS7388); 20 µM): 0.125
viability (Everolimus; 0.0032 µM): 1.03
viability (Everolimus; 0.016 µM): 0.954
viability (Everolimus; 0.08 µM): 1.01
viability (Everolimus; 0.4 µM): 1
viability (Everolimus; 2 µM): 1.04
viability (Roscovitine; 0.032 µM): 0.978
viability (Roscovitine; 0.16 µM): 1.06
viability (Roscovitine; 0.8 µM): 0.972
viability (Roscovitine; 4 µM): 1.05
viability (Roscovitine; 20 µM): 0.949
viability ([1]; 0.008 µM): 1.03
viability ([1]; 0.04 µM): 1.03
viability ([1]; 0.2 µM): 1.04
viability ([1]; 1 µM): 1.06
viability ([1]; 5 µM): 0.938
viability ([2]; 0.024 µM): 1.07
viability ([2]; 0.12 µM): 1.03
viability ([2]; 0.6 µM): 1.03
viability ([2]; 3 µM): 1.07
viability ([2]; 15 µM): 1.06
viability ([3]; 0.024 µM): 0.96
viability ([3]; 0.12 µM): 1.03
viability ([3]; 0.6 µM): 1.04
viability ([3]; 3 µM): 0.96
viability ([3]; 15 µM): 0.983
viability (Thalidomide; 0.032 µM): 1.04
viability (Thalidomide; 0.16 µM): 0.979
viability (Thalidomide; 0.8 µM): 1.04
viability (Thalidomide; 4 µM): 0.987
viability (Thalidomide; 20 µM): 1.05
viability (Entospletinib; 0.024 µM): 1.01
viability (Entospletinib; 0.12 µM): 1.06
viability (Entospletinib; 0.6 µM): 0.955
viability (Entospletinib; 3 µM): 0.995
viability (Entospletinib; 15 µM): 1.04
viability (I-BET-762; 0.008 µM): 1.03
viability (I-BET-762; 0.04 µM): 1.03
viability (I-BET-762; 0.2 µM): 1.05
viability (I-BET-762; 1 µM): 1.03
viability (I-BET-762; 5 µM): 0.988
viability (CPI-169; 0.024 µM): 1
viability (CPI-169; 0.12 µM): 0.999
viability (CPI-169; 0.6 µM): 1.03
viability (CPI-169; 3 µM): 1.02
viability (CPI-169; 15 µM): 1.05
viability (Venetoclax; 0.00064 µM): 1.03
viability (Venetoclax; 0.0032 µM): 0.874
viability (Venetoclax; 0.016 µM): 0.463
viability (Venetoclax; 0.08 µM): 0.0995
viability (Venetoclax; 0.4 µM): 0.0666

primary ALL patient cells (S088)
viability (Bendamustine; 0.032 µM): 1
viability (Bendamustine; 0.16 µM): 1.07
viability (Bendamustine; 0.8 µM): 1
viability (Bendamustine; 4 µM): 0.929
viability (Bendamustine; 20 µM): 0.679
viability (Vindesine; 0.016 µM): 0.633
viability (Vindesine; 0.08 µM): 0.464
viability (Vindesine; 0.4 µM): 0.37
viability (Vindesine; 2 µM): 0.317
viability (Vindesine; 10 µM): 0.255
viability (Idasanutlin (RS7388); 0.032 µM): 0.557
viability (Idasanutlin (RS7388); 0.16 µM): 0.423
viability (Idasanutlin (RS7388); 0.8 µM): 0.286
viability (Idasanutlin (RS7388); 4 µM): 0.155
viability (Idasanutlin (RS7388); 20 µM): 0.132
viability (Everolimus; 0.0032 µM): 0.871
viability (Everolimus; 0.016 µM): 0.782
viability (Everolimus; 0.08 µM): 0.76
viability (Everolimus; 0.4 µM): 0.739
viability (Everolimus; 2 µM): 0.74
viability (Roscovitine; 0.032 µM): 0.619
viability (Roscovitine; 0.16 µM): 0.669
viability (Roscovitine; 0.8 µM): 0.615
viability (Roscovitine; 4 µM): 0.607
viability (Roscovitine; 20 µM): 0.319
viability ([1]; 0.008 µM): 0.545
viability ([1]; 0.04 µM): 0.445
viability ([1]; 0.2 µM): 0.393
viability ([1]; 1 µM): 0.341
viability ([1]; 5 µM): 0.297
viability ([2]; 0.024 µM): 0.838
viability ([2]; 0.12 µM): 0.868
viability ([2]; 0.6 µM): 0.907
viability ([2]; 3 µM): 0.931
viability ([2]; 15 µM): 0.733
viability ([3]; 0.024 µM): 0.471
viability ([3]; 0.12 µM): 0.597
viability ([3]; 0.6 µM): 0.43
viability ([3]; 3 µM): 0.548
viability ([3]; 15 µM): 0.573
viability (Thalidomide; 0.032 µM): 0.94
viability (Thalidomide; 0.16 µM): 0.902
viability (Thalidomide; 0.8 µM): 0.832
viability (Thalidomide; 4 µM): 0.917
viability (Thalidomide; 20 µM): 0.962
viability (Entospletinib; 0.024 µM): 1.01
viability (Entospletinib; 0.12 µM): 1.06
viability (Entospletinib; 0.6 µM): 0.954
viability (Entospletinib; 3 µM): 0.986
viability (Entospletinib; 15 µM): 1.02
viability (I-BET-762; 0.008 µM): 0.856
viability (I-BET-762; 0.04 µM): 0.906
viability (I-BET-762; 0.2 µM): 0.857
viability (I-BET-762; 1 µM): 0.522
viability (I-BET-762; 5 µM): 0.444
viability (CPI-169; 0.024 µM): 0.666
viability (CPI-169; 0.12 µM): 0.704
viability (CPI-169; 0.6 µM): 0.707
viability (CPI-169; 3 µM): 0.632
viability (CPI-169; 15 µM): 0.548
viability (Venetoclax; 0.00064 µM): 0.916
viability (Venetoclax; 0.0032 µM): 0.657
viability (Venetoclax; 0.016 µM): 0.437
viability (Venetoclax; 0.08 µM): 0.259
viability (Venetoclax; 0.4 µM): 0.181

primary AML patient cells (S060)
viability (Bendamustine; 0.032 µM): 1
viability (Bendamustine; 0.16 µM): 0.992
viability (Bendamustine; 0.8 µM): 1.03
viability (Bendamustine; 4 µM): 1.08
viability (Bendamustine; 20 µM): 1.07
viability (Vindesine; 0.016 µM): 0.97
viability (Vindesine; 0.08 µM): 0.901
viability (Vindesine; 0.4 µM): 0.95
viability (Vindesine; 2 µM): 0.922
viability (Vindesine; 10 µM): 0.948
viability (Idasanutlin (RS7388); 0.032 µM): 0.927
viability (Idasanutlin (RS7388); 0.16 µM): 1.11
viability (Idasanutlin (RS7388); 0.8 µM): 1.17
viability (Idasanutlin (RS7388); 4 µM): 1.01
viability (Idasanutlin (RS7388); 20 µM): 1.19
viability (Everolimus; 0.0032 µM): 1.02
viability (Everolimus; 0.016 µM): 1.03
viability (Everolimus; 0.08 µM): 1
viability (Everolimus; 0.4 µM): 1.08
viability (Everolimus; 2 µM): 1.02
viability (Roscovitine; 0.032 µM): 1.03
viability (Roscovitine; 0.16 µM): 1.07
viability (Roscovitine; 0.8 µM): 1.01
viability (Roscovitine; 4 µM): 1.06
viability (Roscovitine; 20 µM): 0.837
viability ([1]; 0.008 µM): 0.983
viability ([1]; 0.04 µM): 1.05
viability ([1]; 0.2 µM): 0.812
viability ([1]; 1 µM): 0.654
viability ([1]; 5 µM): 0.495
viability ([2]; 0.024 µM): 1.01
viability ([2]; 0.12 µM): 1.03
viability ([2]; 0.6 µM): 1.01
viability ([2]; 3 µM): 1.02
viability ([2]; 15 µM): 1.03
viability ([3]; 0.024 µM): 0.919
viability ([3]; 0.12 µM): 1.1
viability ([3]; 0.6 µM): 1.01
viability ([3]; 3 µM): 0.993
viability ([3]; 15 µM): 0.986
viability (Thalidomide; 0.032 µM): 0.934
viability (Thalidomide; 0.16 µM): 0.944
viability (Thalidomide; 0.8 µM): 0.922
viability (Thalidomide; 4 µM): 0.928
viability (Thalidomide; 20 µM): 0.947
viability (Entospletinib; 0.024 µM): 0.993
viability (Entospletinib; 0.12 µM): 1.03
viability (Entospletinib; 0.6 µM): 1
viability (Entospletinib; 3 µM): 1.06
viability (Entospletinib; 15 µM): 1.08
viability (I-BET-762; 0.008 µM): 0.968
viability (I-BET-762; 0.04 µM): 0.952
viability (I-BET-762; 0.2 µM): 0.923
viability (I-BET-762; 1 µM): 0.806
viability (I-BET-762; 5 µM): 0.563
viability (CPI-169; 0.024 µM): 1.07
viability (CPI-169; 0.12 µM): 1.07
viability (CPI-169; 0.6 µM): 1.06
viability (CPI-169; 3 µM): 1.14
viability (CPI-169; 15 µM): 1.18
viability (Venetoclax; 0.00064 µM): 1.01
viability (Venetoclax; 0.0032 µM): 1.01
viability (Venetoclax; 0.016 µM): 0.978
viability (Venetoclax; 0.08 µM): 1.05
viability (Venetoclax; 0.4 µM): 1
